The subject of one series is A549. The series is described as follows: SRB cell proliferation assay, A549. Type of series: cell-based. The settings on record: Homo sapiens; A549 (lung); compound 1 tested in racemic mixture. As to the method: (§1) Cells were exposed to the test compound racemate at various concentrations appropriate to determine an IC50 for 72 hours. Cell proliferation was measured using the SRB assay according to Shekan et al (J Natl Cancer Inst (1990) 82, 1107-112) in order to estimate the IC50 values shown in Table 3. Briefly, cells were plated in 96 well dishes 24 hours prior to compound addition at the densities specified in Table 5.1. The assay was terminated with the addition of cold TCA to a final concentration of 10% after growth medium has been removed and the plates were incubated over night at 4°C. The plates were then washed 5 times with water and 100µl of a Sulforhodamine B solution ([…]) was added to each well. The plates were then incubated for 10 minutes at room temperature before removal of unbound dye by washing with 1% acetic acid. The bound dye was solubilised with 10 mM Trizma base and the absorbance read at OD520.
(§2) Inhibitory activity of the compound (IC) was calculated as % inhibition of cell proliferation compared to cells treated with the solvent (DMSO).
(§3) Table 8.1: 18-Cell Line Panel

For another series, the system named is COLO 205. As to the kind of experiment: SRB cell proliferation assay, COLO 205. Type of series: cell-based. The settings on record: Homo sapiens; COLO 205 (colon); compound 1 tested in racemic mixture. Here is the method:
as §1, §2, §3

The next series concerns DU 145. As to the kind of experiment: SRB cell proliferation assay, DU 145. The class given is cell-based. The settings on record: Homo sapiens; DU 145 (prostate); compound 1 tested in racemic mixture. Here is the method:
as §1, §2, §3

In the next series the test system is A-431. The series is described as follows: SRB cell proliferation assay, A-431. The class given is cell-based. The settings on record: Homo sapiens; A-431 (skin); compound 1 tested in racemic mixture. As to the method:
as §1, §2, §3

Another series relates to MDA-MB-231. The series is described as follows: SRB cell proliferation assay, MDA-MB-231. The class given is cell-based. The settings on record: Homo sapiens; MDA-MB-231 (breast); compound 1 tested in racemic mixture. As to the method: as §1, §2, §3
The test system of the next series is A-375. As to the kind of experiment: SRB cell proliferation assay, A-375. Type of series: cell-based. Particulars: Homo sapiens; A-375 (melanoma); compound 1 tested in racemic mixture. Here is the method: as §1, §2, §3
A further series deals with OVCAR-3. The series is described as follows: SRB cell proliferation assay, OVCAR-3. Type of series: cell-based. Particulars: Homo sapiens; OVCAR-3 (ovary); compound 1 tested in racemic mixture. As to the method: as §1, §2, §3
Another series has as its system SW620. As to the kind of experiment: SRB cell proliferation assay, SW620. The class given is cell-based. Particulars: Homo sapiens, SW-620; SW620 (colon); compound 1 tested in racemic mixture. Here is the method:
as §1, §2, §3

The next series concerns HCT 116. As to the kind of experiment: SRB cell proliferation assay, HCT 116. Type of series: cell-based. Particulars: Homo sapiens; HCT 116 (colon); compound 1 tested in racemic mixture; read-out: IC50. As to the method:
as §1, §2, §3

A further series deals with PC-3. As to the kind of experiment: SRB cell proliferation assay, PC-3. The settings on record: Homo sapiens; PC-3 (prostate); compound 1 tested in racemic mixture. Type of series: cell-based. As to the method: as §1, §2, §3
A further series relates to NCI-H460. The series is described as follows: SRB cell proliferation assay, NCI-H460. The class given is cell-based. Particulars: Homo sapiens; NCI-H460 (NSCLC); compound 1 tested in racemic mixture. Here is the method:
as §1, §2, §3

The test system of another series is HeLa. The series is described as follows: SRB cell proliferation assay, HeLa. Particulars: Homo sapiens; HeLa (cervix); compound 1 tested in racemic mixture. The class given is cell-based. Here is the method: as §1, §2, §3
The subject of the next series is SK-MEL-28. As to the kind of experiment: SRB cell proliferation assay, SK-MEL-28. Particulars: Homo sapiens; SK-MEL-28 (melanoma); compound 1 tested in racemic mixture. Type of series: cell-based. Here is the method:
as §1, §2, §3

Another series relates to SK-MEL-5. The series is described as follows: SRB cell proliferation assay, SK-MEL-5. Type of series: cell-based. Particulars: Homo sapiens; SK-MEL-5 (melanoma); compound 1 tested in racemic mixture. Here is the method: as §1, §2, §3
The subject of a further series is ACHN. As to the kind of experiment: SRB cell proliferation assay, ACHN. The class given is cell-based. Particulars: Homo sapiens; ACHN (kidney); compound 1 tested in racemic mixture. As to the method: as §1, §2, §3
For another series, the system named is IMR-90. As to the kind of experiment: SRB cell proliferation assay, IMR-90. Type of series: cell-based. Particulars: Homo sapiens; IMR-90 (lung); compound 1 tested in racemic mixture; read-out: IC50. Here is the method:
as §1, §2, §3

The test system of a further series is MDA-MB-468. The series is described as follows: SRB cell proliferation assay, MDA-MB-468. Type of series: cell-based. The settings on record: MDA-MB-468 (breast), compound 1 tested in racemic mixture. Here is the method:
as §1, §2, §3

The next series has as its system HT-29. The series is described as follows: SRB cell proliferation assay, HT-29. The class given is cell-based. Particulars: Homo sapiens; HT-29 (colon); compound 1 tested in racemic mixture; read-out: IC50. As to the method:
as §1, §2, §3

The subject of a further series is NCI-H460 tumor cells. As to the kind of experiment: Mouse xenograft model using human NCI-H460 cells. Type of series: in vivo. The settings on record: for mean body weight / mean body weight change: end of day four after begin of treatment; for mice died: mouse, in vivo. Here is the method: […]. Human HT-29 cells (ATCC) colon carcinoma cell line are cultured in McCoy's medium (ATCC) supplied with 10% FCS and 1% Pen/Strep. The 2nd passage of cells with approximately 80% confluence is used in the study. Briefly, on Day 0, mice are inoculated with 0.1 ml (total 5x10^6 cells) of HT-29 cell suspension (50x10^6 cells/ml in McCoy's medium without supplements mixed 1:1 with Matrigel) by a subcutaneous injection into the lower right flank under light anesthesia. When the average tumor weights reaches above 100mg, animals with an appropriate tumor size are selected and are randomly divided into treatment groups (10 animals each).
Tumor growth and body weight are monitored and recorded twice a week. Tumors are measured by determining the length and width of the tumor with a digital caliper. Tumor weight is estimated using the following formula: Tumor Weight (mg) = (w^2 x 1) / 2 where w = width and I = length in mm of the tumor.
Toxic deaths are defined as deaths caused by compound treatment and not by advanced disease state. […].
In a model similar to the one described in a), mice were inoculated with NCI-H460 tumor cells, and treated (9 mice for each treatment group) with either vehicle only (NMP:PEG300), compound 1 (70 mg/kg once per week), compound 1 (35 mg/kg twice per week), BI 6727 (70 mg/kg once per week) and gemcitabine (25 mg/kg, once per week) (vivoPharm Europe Limited, Munich, Germany). At the end of day four after begin of treatment, the mean body weight for the compound 1 treatment groups had dropped from 20.5 g to 19.2 g (~5%; standard deviation 2.6 g), and from 20.1 g to 19.3 g (-4%; standard deviation 0.9 g), respectively, and one mouse in the high-dose treatment group had died. In contrast, in the BI 6727 treatment group, the mean body weight had dropped from 20.2 g to 16.2 g (-20%; standard deviation 1.5 g), five mice had died and the remaining mice had to be killed for ethical reasons.

The subject of series [1] is 255 other protein kinases. As to the kind of experiment: Standard selectivity panel (ProQinase), 255 other kinases. The class given is biochemical. Particulars: 1 µM, duplicates; all other kinases. Here is the method:
(§4) The compound of the present invention was tested in a standard selectivity panel including Plkl and 255 other kinases (ProQinase GmbH, Freiburg, Germany), under conditions of non-disclosure, non-dissemination and non-use.
(§5) In brief, compound 1 (see Table 1) was tested at 1 µM in duplicates against Plk1 as well as against 255 other protein kinases, including Abl, Aktl, Aur A, Kit, Raf-1, Cdkl/CycB1, Chk1, FGF-R3, Flt3, Fyn, IGF1-R, INS-R, Lyn, p38a, PAK4, PKCalpha, Ret, ROCK2, Src, TIE2, and VEGF-R2. The test compound 1 inhibited Plk1 by more than about 90%, only three other kinases were inhibited by between about 50% and about 90%, about 13 kinases by between about 10% and about 50%, and all other kinases were inhibited by less than about 10%.

The test system of series [2] is panel of 57 tumor cell lines. The series is described as follows: Panel of 57 tumor cell lines (OncoLead), growth inhibition. The class given is cell-based. As to the method:
In a similar experiment, the inhibitory activity of compound 1 was tested against a panel of 57 tumor cell lines (OncoLead GmbH&Co.KG, Martinsried, Germany) under conditions of non-disclosure, non-dissemination and non-use.
In 18 cell lines, the GI50 value was between 1 µM and 0.1 µM, and in 31 cell lines, the GI50 value was below 0.1 µM.

The next series concerns the target Plk1 (Homo sapiens, UniProt P53350). The series is described as follows: Standard selectivity panel (ProQinase), Plk1. Type of series: biochemical. More on the design: purchased ProQinase GmbH, Freiburg, Germany. Particulars: duplicates, read-out: inhibited Plk1. Here is the method:
as §4, §5

Like-named read-outs stand apart in the source and are kept apart here.

Sequence of Plk1 (P53350 whole entry, species assumed): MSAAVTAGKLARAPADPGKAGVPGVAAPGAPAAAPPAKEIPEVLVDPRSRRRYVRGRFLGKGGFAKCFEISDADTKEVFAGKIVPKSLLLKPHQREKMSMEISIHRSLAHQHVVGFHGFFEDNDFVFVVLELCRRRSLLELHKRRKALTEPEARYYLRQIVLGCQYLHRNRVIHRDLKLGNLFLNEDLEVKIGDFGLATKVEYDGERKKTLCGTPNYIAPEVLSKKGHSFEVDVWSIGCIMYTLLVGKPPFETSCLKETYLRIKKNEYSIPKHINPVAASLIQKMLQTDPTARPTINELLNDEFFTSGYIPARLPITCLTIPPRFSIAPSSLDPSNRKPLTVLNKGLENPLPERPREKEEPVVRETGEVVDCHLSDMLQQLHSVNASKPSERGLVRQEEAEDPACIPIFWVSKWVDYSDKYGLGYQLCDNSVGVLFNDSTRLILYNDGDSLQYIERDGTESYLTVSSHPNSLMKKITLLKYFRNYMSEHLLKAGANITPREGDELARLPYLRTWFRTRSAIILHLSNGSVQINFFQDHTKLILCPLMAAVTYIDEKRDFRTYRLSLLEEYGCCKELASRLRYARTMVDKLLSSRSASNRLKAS

As to `CC[C@@H]1C(=O)N(C)c2cnc(Nc3ccc(C(=O)NC4CCN(C)CC4)cc3OC)nc2N1C1CCCC1` [BI 2536, reference compound], the IC50 in the series on A549, in the series on COLO 205, in the series with DU 145, with A-431, with MDA-MB-231 and in the series with A-375 was below 1 µM throughout. Besides, the IC50 with OVCAR-3, with SW620, in the series with HCT 116, with PC-3, in the series with NCI-H460 and with HeLa was below 1 µM throughout. The IC50 is below 1 µM in the series on SK-MEL-28; below 1 µM in the series with SK-MEL-5; below 1 µM with ACHN; above 1 µM in the series on IMR-90; “plateau at ∼50%” with MDA-MB-468; below 1 µM in the series with HT-29.

For the compound `CC[C@@H]1C(=O)N(C)c2cnc(Nc3ccc(C(=O)N[C@H]4CC[C@H](N5CCN(CC6CC6)CC5)CC4)cc3OC)nc2N1C(C)C` [BI 6727, reference compound], in the series on NCI-H460 tumor cells (70 mg/kg once per week), the mean body weight was 16.2 g and the “mean body weight change” value is listed as -20%. In the series with NCI-H460 tumor cells, the mice died result was “five”.

With `CC[C@@H]1C(=O)N(C)c2cnc(Nc3ccc(C(=O)N[C@H]4CC[C@H](N5CCN(CC6CC6)CC5)CC4)cc3OC)nc2N1N(C)C` [Compound 1, (7R)-N-[trans-4-(4-Cyclopropylmethyl-piperazin-1-yl)-cyclohexyl]-4-(8-dimethylamino-7-ethyl-5-methyl-6-oxo-5,6,7,8-tetrahydro-pteridin-2-ylamino)-3-methoxy-benzamide], in series [1], the kinases inhibited result is “less than 10%”. Moreover, the IC50 in the series with A549, with COLO 205, with DU 145, in the series with A-431, in the series with MDA-MB-231 and in the series with A-375 was below 1 µM in each case. For the same compound, the IC50 in the series on OVCAR-3, in the series with SW620, in the series on HCT 116, in the series with PC-3, in the series with NCI-H460 and in the series on HeLa was below 1 µM throughout. The IC50 in the series on SK-MEL-28 was above 1 µM; with SK-MEL-5 it was below 1 µM; in the series with ACHN, below 1 µM; in the series with IMR-90, above 1 µM; in the series on MDA-MB-468 (Homo sapiens, read-out: IC50) it was above 1 µM; in the series on HT-29, below 1 µM. Besides, the figures for the GI50 in series [2] (in 18 cell lines of 57), in [2] (in 31 cell lines of 57) and in [2] (in about 49 cell lines of 57) were 0.1 to 1 µM, below 0.1 µM and below 1 µM, respectively. Moreover, the inhibition at 1 µM on Plk1 was above 90%. The values for the mean body weight with NCI-H460 tumor cells (35 mg/kg twice per week) and with NCI-H460 tumor cells (70 mg/kg once per week) were 19.3 g and 19.2 g, respectively. Also, the “mean body weight change” value was -4% with NCI-H460 tumor cells (35 mg/kg twice per week) and ~ 5% in the series with NCI-H460 tumor cells (70 mg/kg once per week). Moreover, in the series on NCI-H460 tumor cells (70 mg/kg once per week and 35 mg/kg twice per week, compared with vehicle only or gemcitabine groups), the tumor growth entry is “a reduction of tumor growth could be observed”. Moreover, the mice died result in the series with NCI-H460 tumor cells was “one”.

The values above are taken from patent EP2325185A1, “Plk inhibitor” (GPC Biotech AG, priority 2009, dated 2011).
